Laboratory results as given in patent US8586571B2, “Heterocyclic compound” (Takeda Pharmaceutical Company Limited, priority 2007, dated 2013).

Legend:
RBP4 = RBP4 (Mus musculus (Mouse), UniProt Q00724); test: Blood RBP4 lowering action in C57BL/6J mouse (plasma RBP4 by ELISA); assay type: in vivo; conditions: mean±SD (n=5); for RBP4 (% of initial/Control) 4 hr later: 4 hr after single oral 50 mg/kg; for RBP4 (% of initial/Control) 7 hr later: 7 hr after single oral 50 mg/kg; for RBP4 (% of initial/Control) 24 hr later: 24 hr after single oral 50 mg/kg
Procedure: A blood RBP4 lowering action of the compound of the present invention was evaluated using C57BL/6J mouse.
Male 7- to 15-week-old C57BL/6J mice (Charles River Laboratories Japan Inc.) were individually bred for acclimation for 4-6 days under conditions with free access to CE-2 solid food (CLEA Japan, Inc.), and grouped based on the body weight (5 per group). The next day of grouping, blood samples were collected from the orbital venous plexus, and plasma was separated (0 hr value). Thereafter, the test compounds (Examples 12, 143, 164, 189, 197, 207 and 215) were orally administered at a dose of 50 mg/kg (solvent: 0.5% methylcellulose solution (10 mL/kg)). At 4, 7 and 24 hr after administration of the compounds, blood samples were collected from the orbital venous plexus, and plasma was separated. A 0.5% methylcellulose solution (10 mL/kg) was orally administered to the control group.
The RBP4 level of the collected plasma was measured by ELISA. RBP4 was quantified by the following steps using a rabbit anti-mouse RBP4 polyclonal antibody (Hokudo Co., Ltd). A 96 well ELISA plate was coated with 50 μg/mL of the antibody (100 μL) and stood at 4° C. overnight. After blocking with BlockAce (DAINIPPON PHARMACEUTICAL CO., LTD.), mouse RBP4 or a sample (100 μL) was added and the plate was stood at room temperature for 2 hr. After washing with PBS-0.5% Tween 20, HRP-labeled anti-RBP4 antibody (prepared by labeling RBP4 polyclonal antibody (Hokudo Co., Ltd) with HRP (DOJINDO LABORATORIES)) was added by 100 μL, and the plate was stood at room temperature for 1 hr. After washing, TMB (Dako Cytomations) was added, and the mixture was stood at room temperature for 20 min to allow color development, and the reaction was quenched with 2N sulfuric acid. Thereafter, the absorbance at A450 nm was measured on a platereader. The amount of change from the initial value of each animal was determined as a relative value from the control group (% of initial/Control) at each time point. The results are shown in the following in mean±standard deviation (n=5).

human RBP4 = human RBP4 (Homo sapiens (Human), UniProt P02753); test: Binding assay by Retinol-RBP4-TTR ELISA (human-type ELISA); conditions: inhibition of binding of RBP4 with retinol and TTR; retinol 0.5 μM; read-out: human RBP4 binding inhibitory activity (IC50 nM)
Procedure: The action of the compound of the present invention to inhibit binding of RBP4 and retinol and TTR was evaluated using the Retinol-RBP4-TTR ELISA (human-type ELISA) system shown below.
Binding Assay by Retinol-RBP4-TTR ELISA
This ELISA system detects a complex of retinol, RBP4 and TTR by Streptoavidin-Biotin reaction.
His-tagged human RBP4 used was prepared in the above-mentioned 1C.
Biotinylate human TTR used was prepared in the above-mentioned 1E.
Streptavidin (20 μl) (10 μg/ml Streptavidin type II (Wako Pure Chemical Industries, Ltd.), 10 mM Tris-HCl (pH 7.5), 10 mM NaCl) was added to a 384 well black maxisorp plate (Nunc), and the plate was subjected to centrifugation (1000 rpm, 1 min) and coated overnight at 4° C. The plate was washed twice with PBST (PBS, 0.05% Tween 20, 100 μl/well) and blocked with 25% Block Ace (Snow Brand Milk Products Co., Ltd., PBS, 100 μl/well). The plate was subjected to centrifugation (1000 rpm, 1 min) and incubated at room temperature for 4 hr or overnight at 4° C. The plate was washed twice with PEST (PBS, 0.05% Tween 20, 100 μl/well), and biotinylated human TTR (stock solution concentration 1.3 mg/ml) diluted 1000-fold with PBST was added at 20 μl/well. The plate was subjected to centrifugation (1000 rpm, 1 min) and stood still at room temperature for 1.5 hr or overnight at 4° C. The plate was washed 3 times with PBST (100 μl/well), and His-tagged human RBP4 (stock solution concentration 0.96 mg/ml) diluted 4000-fold with a reaction buffer (50 mM Tris-HCl, 150 mM NaCl, 0.005% Tween 20, 1 mM DTT, 0.1% BSA) was added at 10 μl/well. The dilution series (8 doses from 10 mM, 200-fold concentration) of the compound was prepared with DMSO, and 1 μl of each was added to a reaction buffer (200 μl) containing retinol (0.5 μM) (Sigma-Aldrich Co.). A reaction buffer (200 μl) containing retinol and added with DMSO was used as a positive control, and reaction buffer (200 μl) free of retinol and added with DMSO was used as a negative control. Mixed solutions of retinol and the compound were added to the plate at 15 μl/well. The mixture was stirred in a platemixer subjected to centrifugation (1000 rpm, 1 min) and reacted at room temperature for 2 hr. A 35% Block Ace solution diluted with the reaction buffer was added at 10 μl/well, centrifuged (1000 rpm, 1 min) and reacted at room temperature for 30 min. The plate was washed 3 times with PBST (100 μl/well) and SuperSignal ELISA Femto Maximum Sensitivity Substrate reagent (PIERCE) was added at 30 μl/well, and the luminescence was measured by a platereader (Wallac).
The binding inhibitory rate of the compound was determined by 100×(test compound value-negative control value)/(positive control value-negative control value). The binding activity (IC50) was calculated from the binding inhibitory rate at each compound concentration using a graph drawing software, Prism (GraphPad Software Inc.).

Zucker fa/fa rat = test: Anti-diabetes action using Zucker fa/fa rat (Takeda Pharmaceutical Company Limited); assay type: in vivo; conditions: oral 30 mg/kg for 2 weeks
Procedure: An anti-diabetes action and a blood triglyceride (hereinafter TG)-lowering action of the compound of the present invention were evaluated using Zucker fa/fa rats.
Male 7-week-old Zucker fa/fa rats (Takeda Pharmaceutical Company Limited) were bred in group on CE-2 solid food (CLEA Japan, Inc.) until 7-week-old, thereafter bred on high-fat diet D06110702 (LSG Corporation) for acclimation under conditions with free access to food. At 11-week-old, the rats were grouped based on the body weight, blood glucose level, glycated hemoglobin level, blood RBP4 level and blood insulin level value (6 per group). Thereafter, the test compound (Example 143) was orally administered at a dose of 30 mg/kg (solvent: 0.5% methylcellulose solution (5 mL/kg)) for 2 weeks. The next day of the final administration of the compound, blood samples were collected from the tail vein, and plasma was separated. Using the collected plasma, (1) RBP4 concentration and (2) glycated hemoglobin level were measured. (1) was quantified according to the protocol described in Experimental Example 2. (2) was measured using Tosoh Corporation automatic glycohemoglobin analyzer (HLC-723 GHbV A1c2.2 or HLC-723G7 GHbV A1c2.2).
A 0.5% methylcellulose solution (5 mL/kg) was orally administered to the control group. […] The results are shown in the is following in mean±standard deviation (n=6). In the following Table, glycated hemoglobin change is obtained by subtracting the value before administration from that after administration.

Row | Structure (SMILES) | RBP4 (% of initial/Control) 4 hr later (RBP4) | RBP4 (% of initial/Control) 7 hr later (RBP4) | RBP4 (% of initial/Control) 24 hr later (RBP4) | IC50 (human RBP4) [nM] | other results
1 | CC(C)(C)c1cc(F)ccc1OCC1CN(C(=O)CC(=O)O)C1 [Example 143, 3-{3-[(2-tert-butyl-4-fluorophenoxy)methyl]azetidin-1-yl}-3-oxopropanoic acid] | 46.7 ± 6.6 % of initial/Control | 36.2 ± 4.2 % of initial/Control | 45.2 ± 9.1 % of initial/Control | 23 | blood RBP4 concentration (result in words) (Zucker fa/fa rat; versus control): significant decrease; glycated hemoglobin (result in words) (Zucker fa/fa rat; versus control): significant decrease; RBP4 (Zucker fa/fa rat; plasma, high-fat diet, mean±SD (n=6)): 7.3 ± 1.2 µg/mL; glycated hemoglobin change(%) (Zucker fa/fa rat; value after minus before administration, mean±SD (n=6)): 0.6 ± 0.4%
2 | CC(C)(C)c1ccccc1S(=O)(=O)C1CN(C(=O)c2ccccc2)C1 [Example 20, (3-(2-tert-butylphenylsulfonyl)azetidin-1-yl)(phenyl)methanone] | – | – | – | 290 | –
3 | CC(C)(C)c1cc(Cl)ccc1OCC1CN(C(=O)C(=O)O)C1 [Example 207, {3-[(2-tert-butyl-4-chlorophenoxy)methyl]azetidin-1-yl}(oxo)acetic acid] | 55.6 ± 1.0 % of initial/Control | 49.0 ± 1.3 % of initial/Control | 69.5 ± 6.6 % of initial/Control | 12 | –
4 | CC(C)(C)c1ccccc1OC1CCN(C(=O)c2ccccn2)CC1 [Example 50, (4-(2-tert-butylphenoxy)piperidin-1-yl)(pyridin-2-yl)methanone] | – | – | – | 5 | –
5 | CC(C)(C)c1cc(F)ccc1OC1CN(C(=O)c2ccccn2)C1 [Example 6, (3-(2-tert-butyl-4-fluorophenoxy)azetidin-1-yl)(pyridin-2-yl)methanone] | – | – | – | 20 | –
6 | CC(C)(C)c1cc(Cl)ccc1OC1CN(C(=O)c2ccccn2)C1 [Example 164, 2-{[3-(2-tert-butyl-4-chlorophenoxy)azetidin-1-yl]carbonyl}pyridine] | 55.6 ± 6.3 % of initial/Control | 46.4 ± 7.2 % of initial/Control | 74.5 ± 8.9 % of initial/Control | 15 | –
7 | CC(C)(C)c1ccccc1OCC1CCN(C(=O)CC(=O)O)C1 (stereo not drawn) [Example 197, 3-{3-[(2-tert-butylphenoxy)methyl]pyrrolidin-1-yl}-3-oxopropanoic acid] | 39.2 ± 1.4 % of initial/Control | 29.2 ± 1.0 % of initial/Control | 40.4 ± 3.0 % of initial/Control | 40 | –
8 | CC(C)(C)c1ccccc1OC1CN(C(=O)C2(C(=O)O)CC2)C1 [Example 14, 1-(3-(2-tert-butylphenoxy)azetidine-1-carbonyl)cyclopropanecarboxylic acid] | – | – | – | 24 | –
9 | CC(C)(C)c1ccccc1SC1CN(C(=O)c2ccccn2)C1 [Example 17, (3-(2-tert-butylphenylthio)azetidin-1-yl)(pyridin-2-yl)methanone] | – | – | – | 10 | –
10 | CC(C)(C)c1ccccc1OC1CN(C(=O)CC(=O)O)C1 [Example 10, 3-(3-(2-tert-butylphenoxy)azetidin-1-yl)-3-oxopropanoic acid] | – | – | – | 36 | –
11 | CC(C)(C)c1cc(Cl)ccc1OC1CN(C(=O)CCC(=O)O)C1 [Example 189, 4-[3-(2-tert-butyl-4-chlorophenoxy)azetidin-1-yl]-4-oxobutanoic acid] | 51.5 ± 1.7 % of initial/Control | 42.1 ± 1.3 % of initial/Control | 69.7 ± 9.6 % of initial/Control | 71 | –
12 | CC(C)(C)c1cc(F)ccc1OCC1CCN(C(=O)CC(=O)O)C1 (stereo not drawn) [Example 215, 3-{3-[(2-tert-butyl-4-fluorophenoxy)methyl]pyrrolidin-1-yl}-3-oxopropanoic acid] | 64.3 ± 1.2 % of initial/Control | 60.6 ± 0.6 % of initial/Control | 64.7 ± 4.3 % of initial/Control | 34 | –
13 | CCCCCS(=O)(=O)NC(=O)C(=O)N1CCC(COc2ccccc2C(C)(C)C)CC1 [Example 121, 2-{4-[(2-tert-butylphenoxy)methyl]piperidin-1-yl}-2-oxo-N-(pentylsulfonyl)acetamide] | – | – | – | 790 | –
14 | CC(C)(C)c1cc(F)ccc1OC1CN(C(=O)CCC(=O)O)C1 [Example 80, 4-[3-(2-tert-butyl-4-fluorophenoxy)azetidin-1-yl]-4-oxobutanoic acid] | – | – | – | 20 | –
